From publication PMC10178864, “Identification, Baculoviral Expression, and Biochemical Characterization of a Novel Cholinesterase of Amblyomma americanum (Acari: Ixodidae)” (International Journal of Molecular Sciences, 2023) come the findings set out here.

In general, Km refers to the concentration of substrate that gives half-maximal velocity.

Molecules are shown by their SMILES. Where two headings read alike, the source gives them in different places.

Test [1] addresses T1, rAaChE1 (recombinant AaChE1, A. americanum cholinesterase 1).
T1 construct: pBlueBac4.5/V5-His in Sf21 cells (reverse primer appears to carry the native stop codon); unpurified culture supernatant
The experiment in a line: cholinesterase inhibition assay, absorbance at […] nm. In kind it is biochemical, Amblyomma americanum. Also on record: unit not given here. Conditions: 15 min preincubation, culture supernatant.

The subject of test [2] is T1, rAaChE1 (recombinant AaChE1, A. americanum cholinesterase 1). Kind of test: cholinesterase assay, absorbance at […] nm, microplate. In kind it is biochemical, Amblyomma americanum. Conditions: culture supernatant of baculovirus-infected Sf21 cells.

With `CC(C)NP(=O)(NC(C)C)OP(=O)(NC(C)C)NC(C)C` [Iso-OMPA], the “(IC50) ^2 / rAaChE1 (ATCh Substrate)” value in test [1] (covalent) is listed as 3.48 × 10^−05 (2.76–4.43 × 10^−5).
In the case of `CCCC(=O)SCC[N+](C)(C)C` [BuTCh, butyrylthiocholine], the Km in test [2] (read-out: apparent KM) turned out to be 14.2 µM.
Take `CCOC(=O)CC(SP(=O)(OC)OC)C(=O)OCC` (stereo not shown) [Malaoxon]: the “(IC50) ^2 / rAaChE1 (ATCh Substrate)” value in test [1] (covalent) was 2.77 × 10^−8 (2.45–3.14 × 10^−8).
Take `CC(=O)SCC[N+](C)(C)C` [ATCh, acetylthiocholine]: the Km in test [2] (read-out: KM) was 6.39 µM.
With `C=CC[N+](C)(C)c1ccc(CCC(=O)CCc2ccc([N+](C)(C)CC=C)cc2)cc1` [BW284c51, 1,5-Bis(4-allyldimethylammoniumphenyl)pentan-3-one dibromide], the “(IC50) ^2 / rAaChE1 (ATCh Substrate)” value in test [1] is reported as 2.96 × 10^−7 (2.50–3.50 × 10^−7).
As to `CCOP(=O)(OCC)Oc1ccc2c(C)c(Cl)c(=O)oc2c1` [Coroxon], in test [1] (covalent), the “(IC50) ^2 / rAaChE1 (ATCh Substrate)” value was 2.35 × 10^−11 (1.93–2.84 × 10^−11).
Take `CNC(=O)Oc1ccc2c(c1)[C@]1(C)CCN(C)[C@@H]1N2C` [Eserine]: the “(IC50) ^2 / rAaChE1 (ATCh Substrate)” value in test [1] (covalent) is on record as 2.28 × 10^−10 (2.37–3.26 × 10^−10).
